# Laboratory results reported in ChEMBL document CHEMBL1201862, “PubChem BioAssay data set” (2004).
# Active and inactive are the calls of the source.
# What was measured:
# [1] = target: T1, Rac GTPase-activating protein 1 (Homo sapiens, UniProt Q9H0H5); test: MgcRacGAP GTPase-activating activity inhibitors, confirmation, biochemical, ADP Hunter fluorescence, primary and confirmatory (AID 624330); type: functional
# T1 sequence (Q9H0H5 whole entry): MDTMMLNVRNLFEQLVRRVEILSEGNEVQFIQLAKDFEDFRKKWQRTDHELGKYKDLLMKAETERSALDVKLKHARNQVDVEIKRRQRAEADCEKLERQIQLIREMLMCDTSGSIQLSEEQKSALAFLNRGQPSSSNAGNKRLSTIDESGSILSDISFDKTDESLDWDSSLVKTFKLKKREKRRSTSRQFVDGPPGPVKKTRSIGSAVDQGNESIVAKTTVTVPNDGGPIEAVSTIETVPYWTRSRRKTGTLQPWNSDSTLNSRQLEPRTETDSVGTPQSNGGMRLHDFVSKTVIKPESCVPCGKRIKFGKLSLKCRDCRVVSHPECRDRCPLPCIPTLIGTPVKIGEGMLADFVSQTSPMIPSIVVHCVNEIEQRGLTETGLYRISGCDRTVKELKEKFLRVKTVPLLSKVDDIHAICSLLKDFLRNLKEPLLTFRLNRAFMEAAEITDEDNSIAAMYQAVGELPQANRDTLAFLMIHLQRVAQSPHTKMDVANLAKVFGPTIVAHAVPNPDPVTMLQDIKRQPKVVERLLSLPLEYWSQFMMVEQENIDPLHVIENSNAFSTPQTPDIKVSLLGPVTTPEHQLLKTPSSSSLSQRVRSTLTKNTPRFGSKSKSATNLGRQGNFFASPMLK
# Protein skinhead-1 = target: T2, Protein skinhead-1 (Caenorhabditis elegans, UniProt P34707); type: functional
# T2 sequence (P34707 whole entry): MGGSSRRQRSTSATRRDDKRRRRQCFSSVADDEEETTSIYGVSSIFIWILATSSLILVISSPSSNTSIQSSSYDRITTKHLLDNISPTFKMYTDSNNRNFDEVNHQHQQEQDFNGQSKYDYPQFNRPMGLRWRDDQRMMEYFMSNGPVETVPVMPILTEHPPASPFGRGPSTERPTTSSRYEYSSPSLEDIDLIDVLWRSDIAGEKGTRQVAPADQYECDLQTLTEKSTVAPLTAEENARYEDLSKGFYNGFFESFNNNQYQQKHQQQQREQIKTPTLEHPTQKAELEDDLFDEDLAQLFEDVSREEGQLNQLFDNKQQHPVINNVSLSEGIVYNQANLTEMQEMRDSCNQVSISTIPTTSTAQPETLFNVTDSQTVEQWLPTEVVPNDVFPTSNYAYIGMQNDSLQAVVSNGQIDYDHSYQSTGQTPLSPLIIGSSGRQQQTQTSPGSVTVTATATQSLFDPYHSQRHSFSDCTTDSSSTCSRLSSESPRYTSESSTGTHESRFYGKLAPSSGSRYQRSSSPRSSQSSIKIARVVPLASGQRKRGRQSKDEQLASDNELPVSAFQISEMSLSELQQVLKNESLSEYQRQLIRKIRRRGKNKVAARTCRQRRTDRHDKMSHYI
# [2] = target: T3, High affinity choline transporter 1 (Homo sapiens, UniProt Q9GZV3); test: CHT inhibitors, dose response, cell-based, 5-point CRC, membrane potential dye (AID 504840); type: functional
# T3 sequence (Q9GZV3 whole entry): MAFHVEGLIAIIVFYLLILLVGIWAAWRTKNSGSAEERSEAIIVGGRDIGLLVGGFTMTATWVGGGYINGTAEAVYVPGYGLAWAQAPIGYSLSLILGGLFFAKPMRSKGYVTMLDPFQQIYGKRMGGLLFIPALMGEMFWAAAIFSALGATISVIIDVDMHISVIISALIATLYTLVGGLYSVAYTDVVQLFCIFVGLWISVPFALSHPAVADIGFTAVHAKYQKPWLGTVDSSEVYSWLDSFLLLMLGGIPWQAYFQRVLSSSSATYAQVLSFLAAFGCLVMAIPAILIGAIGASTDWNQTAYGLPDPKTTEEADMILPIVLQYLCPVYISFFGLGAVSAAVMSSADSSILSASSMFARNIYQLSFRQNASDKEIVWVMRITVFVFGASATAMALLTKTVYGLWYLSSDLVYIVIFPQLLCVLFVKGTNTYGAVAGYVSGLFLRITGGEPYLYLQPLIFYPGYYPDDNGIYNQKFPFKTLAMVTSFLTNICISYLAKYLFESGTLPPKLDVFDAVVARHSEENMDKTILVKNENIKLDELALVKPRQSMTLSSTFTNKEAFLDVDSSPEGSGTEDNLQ
# [3] = target: T4, Replicative DNA helicase DnaB (Mycobacterium tuberculosis, UniProt P9WMR3); test: DnaB intein splicing inhibitors, dose response, biochemical, cell-free fluorescence (AID 449749); type: functional
# T4 sequence (P9WMR3 whole entry): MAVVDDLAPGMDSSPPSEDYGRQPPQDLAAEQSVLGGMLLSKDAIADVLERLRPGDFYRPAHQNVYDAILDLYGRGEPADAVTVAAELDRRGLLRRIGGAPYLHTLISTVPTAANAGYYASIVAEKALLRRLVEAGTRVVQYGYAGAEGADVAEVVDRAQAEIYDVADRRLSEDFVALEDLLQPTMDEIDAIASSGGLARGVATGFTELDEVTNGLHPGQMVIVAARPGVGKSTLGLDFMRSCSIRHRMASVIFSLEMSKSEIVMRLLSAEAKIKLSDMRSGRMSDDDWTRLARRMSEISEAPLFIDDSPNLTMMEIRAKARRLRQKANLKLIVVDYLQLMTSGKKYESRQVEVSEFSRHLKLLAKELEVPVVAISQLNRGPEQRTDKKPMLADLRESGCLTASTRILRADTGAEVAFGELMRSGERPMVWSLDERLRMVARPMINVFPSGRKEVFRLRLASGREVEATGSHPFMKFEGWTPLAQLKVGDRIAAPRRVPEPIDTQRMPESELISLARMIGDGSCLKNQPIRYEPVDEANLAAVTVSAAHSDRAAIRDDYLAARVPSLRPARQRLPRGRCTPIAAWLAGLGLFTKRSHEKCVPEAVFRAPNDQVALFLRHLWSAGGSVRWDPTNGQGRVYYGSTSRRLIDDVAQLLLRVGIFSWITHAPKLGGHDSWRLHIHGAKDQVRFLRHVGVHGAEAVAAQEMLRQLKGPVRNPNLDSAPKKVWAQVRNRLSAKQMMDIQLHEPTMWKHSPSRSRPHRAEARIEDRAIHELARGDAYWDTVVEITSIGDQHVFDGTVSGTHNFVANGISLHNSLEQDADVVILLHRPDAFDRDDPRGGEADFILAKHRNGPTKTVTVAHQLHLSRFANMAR
# Protein RecA = target: T5, Protein RecA (Mycobacterium tuberculosis, UniProt P9WHJ3); test: Fluorescence Cell-Free Homogeneous Dose Retest to Identify Inhibitors of RecA-Intein Splicing Activity. [Related pubchem assays (depositor defined):AID2097, AID2223, AID489010, AID492950]; type: functional
# T5 sequence (P9WHJ3 whole entry): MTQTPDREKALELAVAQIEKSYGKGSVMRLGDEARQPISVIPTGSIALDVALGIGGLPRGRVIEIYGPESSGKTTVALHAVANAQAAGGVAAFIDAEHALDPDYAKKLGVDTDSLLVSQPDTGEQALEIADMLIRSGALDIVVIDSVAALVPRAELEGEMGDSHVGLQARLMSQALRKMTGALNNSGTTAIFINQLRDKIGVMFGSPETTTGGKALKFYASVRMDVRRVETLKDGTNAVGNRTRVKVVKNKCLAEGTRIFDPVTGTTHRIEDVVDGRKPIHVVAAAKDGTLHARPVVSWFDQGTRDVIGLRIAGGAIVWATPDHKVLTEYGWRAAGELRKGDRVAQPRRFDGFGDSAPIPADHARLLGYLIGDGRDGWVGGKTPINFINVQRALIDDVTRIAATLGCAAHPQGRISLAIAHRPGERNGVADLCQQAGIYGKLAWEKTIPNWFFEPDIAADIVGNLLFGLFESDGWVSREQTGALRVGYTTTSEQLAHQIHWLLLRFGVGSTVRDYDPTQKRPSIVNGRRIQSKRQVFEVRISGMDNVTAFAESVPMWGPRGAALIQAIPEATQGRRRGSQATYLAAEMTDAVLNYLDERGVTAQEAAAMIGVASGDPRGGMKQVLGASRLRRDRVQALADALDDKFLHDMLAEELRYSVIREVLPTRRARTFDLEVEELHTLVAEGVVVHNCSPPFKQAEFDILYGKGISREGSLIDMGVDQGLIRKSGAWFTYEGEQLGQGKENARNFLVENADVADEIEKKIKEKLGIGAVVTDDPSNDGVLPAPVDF
# Cytochrome P450 3A4 = Cytochrome P450 3A4 (Homo sapiens, UniProt P08684);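 also: CYP3A4 tested as one member of a cytochrome P450 panel screen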
# Cytochrome P450 2C19 = Cytochrome P450 2C19 (Homo sapiens, UniProt P33261); test: Cytochrome panel assay with activity outcomes. Panel member name: p450-cyp2c19 Compounds with AC50 equal or less than 10 uM are considered active; type: functional; details: read-out: AC50
# [4] = HEp-2 cell cytotoxicity, dose response, cytotoxicity control for RSV inhibitor project, HTS (AID 2410); type: functional; details: human respiratory syncytial virus
# [5] = Luminescence Cell-Based Dose Retest to Confirm Inhibitors of Cancer Stem Cells. [Related pubchem assays (depositor defined):AID2717, AID2721]; type: functional; details: Homo sapiens
# Cytochrome P450 3A4, sequence (P08684 whole entry): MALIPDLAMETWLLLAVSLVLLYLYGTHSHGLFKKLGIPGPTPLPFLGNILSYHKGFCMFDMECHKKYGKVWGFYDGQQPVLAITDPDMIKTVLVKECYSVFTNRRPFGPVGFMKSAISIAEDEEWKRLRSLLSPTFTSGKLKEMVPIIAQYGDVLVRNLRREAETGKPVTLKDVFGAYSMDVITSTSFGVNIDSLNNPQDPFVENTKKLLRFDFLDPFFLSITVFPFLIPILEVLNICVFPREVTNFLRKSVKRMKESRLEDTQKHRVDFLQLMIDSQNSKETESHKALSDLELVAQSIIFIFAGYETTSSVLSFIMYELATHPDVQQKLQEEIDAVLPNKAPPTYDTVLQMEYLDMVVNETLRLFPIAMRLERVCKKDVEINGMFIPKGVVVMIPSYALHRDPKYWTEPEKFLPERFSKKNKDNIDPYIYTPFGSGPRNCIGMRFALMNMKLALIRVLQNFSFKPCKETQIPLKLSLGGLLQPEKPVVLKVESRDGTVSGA
# Cytochrome P450 2C19, sequence (P33261 whole entry): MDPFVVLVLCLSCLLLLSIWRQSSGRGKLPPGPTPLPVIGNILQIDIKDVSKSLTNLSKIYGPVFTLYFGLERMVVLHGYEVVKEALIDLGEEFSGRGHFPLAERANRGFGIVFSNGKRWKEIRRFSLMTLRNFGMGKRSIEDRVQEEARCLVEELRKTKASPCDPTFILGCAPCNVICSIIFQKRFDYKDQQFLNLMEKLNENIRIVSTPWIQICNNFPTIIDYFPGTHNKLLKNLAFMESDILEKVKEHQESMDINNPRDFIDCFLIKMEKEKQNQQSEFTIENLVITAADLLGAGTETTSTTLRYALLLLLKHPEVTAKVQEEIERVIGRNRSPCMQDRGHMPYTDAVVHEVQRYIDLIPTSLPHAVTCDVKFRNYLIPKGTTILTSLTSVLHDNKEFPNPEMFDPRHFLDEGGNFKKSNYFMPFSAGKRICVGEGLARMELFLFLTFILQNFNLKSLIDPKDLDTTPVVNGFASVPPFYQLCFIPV
structure (smiles),measurement,setting,value
CCn1cnc2cc(NCc3ccc(OC)cc3)ccc21,IC50,[1],92.1 µM (active)
COc1ccccc1N1CCN(CCC(=O)Nc2ccc3c(c2)OCO3)CC1,IC50,Protein skinhead-1,> 100 µM (inactive)
CNc1oc(Cc2cccc3ccccc23)nc1C#N,IC50,[2],12.6 µM (active)
COc1ccc(N2C(=O)/C(=C\c3ccco3)N=C2SCC(=O)NC(C)(C)C)cc1Cl,AC50,[3],> 380 µM (inactive)
same,EC50,Protein RecA,20.7 µM (inconclusive)
Cc1cc(C(=O)CSc2n[nH]c(N)n2)c(C)n1-c1cc(F)ccc1F,IC50,[2],11.2 µM (active)
COc1ccc(C2C3=C(N=C4SCC(=O)N42)c2ccccc2CC3)cc1OC (stereo unspecified),IC50,Protein skinhead-1,> 100 µM (inactive)
CCCCCn1c(CN2CCCCC2C)nc2c1c(=O)n(C)c(=O)n2C (stereo unspecified),IC50,[2],13.2 µM (active)
same,AC50,Cytochrome P450 3A4,5.01 µM (inconclusive)
same,AC50,Cytochrome P450 2C19,20 µM (inconclusive)
Cc1ccc(S(=O)(=O)N2CCCCC2)cc1NC(=O)CNCc1ccco1,IC50,[1],198 µM (active)
CCCNc1nc2c(c(=O)n(C)c(=O)n2C)n1CCC(C)C,IC50,[2],6.03 µM (active)
Cc1ccc(CSc2nc3ccccc3c(=O)n2Cc2ccco2)cc1,IC50,Protein skinhead-1,> 100 µM (inactive)
CC(Oc1ccccc1Cl)C(=O)Nc1ccc(S(=O)(=O)Nc2nccs2)cc1 (stereo unspecified),IC50,[2],5.01 µM (active)
N#C/C(=C\c1cc(Cl)c(OCc2ccc(Cl)cc2)c(Cl)c1)C(N)=O,AC50,[3],> 380 µM (inactive)
same,CC50,[4],36.8 µM (active)
same,EC50,Protein RecA,> 380 µM (inconclusive)
COCc1n[nH]c2c1C(c1ccc(OC)cc1)C(C#N)=C(N)O2 (stereo unspecified),AC50,[3],25.8 µM (active)
same,EC50,Protein RecA,6.79 µM (active)
Clc1ccc(-c2cnc3ccccc3n2)cc1,IC50,Protein skinhead-1,92 µM (inactive)
CCCc1cc(-c2nc(-c3ccc(Cl)cc3)cs2)ccn1,IC50,Protein skinhead-1,21 µM (active)
same,AC50,[5],8.69 µM (active)
CC1CCN(CCNC(=O)C2CCCN(c3ncnc4c3nc3n4CCCCC3)C2)CC1 (stereo unspecified),IC50,[2],13.2 µM (active)
CCOc1ccccc1/C=C/C(=O)NCC(=O)N1CCC(N(C)C2CCCCC2C)CC1 (stereo unspecified),IC50,[2],14.8 µM (active)
CCn1c(CSc2nnc(-c3ccncc3)n2CCOC)nc2cc(C(=O)O)ccc21,IC50,Protein skinhead-1,> 100 µM (inactive)
Cc1c(Cl)cccc1N=C([S-])/C(=C(\O)c1ccc(Cl)s1)[n+]1ccccc1,AC50,[3],19.8 µM (active)
same,EC50,Protein RecA,12.9 µM (active)
Cc1cc(C)c(C)c(S(=O)(=O)Nc2ccc(O)cc2)c1C,IC50,[1],45.7 µM (active)
O=C(NCCCn1ccnc1)/C(=C\c1ccc(Br)cc1)NC(=O)c1ccccc1,IC50,[2],15.1 µM (active)
Nc1cc2c(cc1N)-c1ccccc1C2,IC50,[1],23 µM (active)
CCCCNC(=O)OCC(CC)NC(=O)OCC(C)C (stereo unspecified),IC50,Protein skinhead-1,> 100 µM (inactive)
Cc1csc2nc(CNS(=O)(=O)c3ccc4c(c3)CCCC4)cn12,IC50,Protein skinhead-1,> 100 µM (inactive)
CC(CCn1cccn1)NC(=O)CCc1nnc(CCc2ccccc2)o1 (stereo unspecified),AC50,[3],> 380 µM (inactive)
same,EC50,Protein RecA,> 380 µM (inactive)
COCCCNC(=O)c1ccc(OC)c(OC2CCN(C(C)C)CC2)c1,IC50,[2],2.51 µM (active)
CCc1nc2ccccc2c(C(=O)OCC(=O)N(CCOC)c2c(N)n(Cc3ccccc3)c(=O)[nH]c2=O)c1C,IC50,Protein skinhead-1,> 100 µM (inactive)
COc1ccc(C(CNC(=O)c2cc(S(=O)(=O)NCc3ccccc3)ccc2C)N2CCOCC2)cc1 (stereo unspecified),IC50,[2],11 µM (active)
O=C(Cc1ccc(Cl)cc1)N/N=C/c1ccc(O)c(O)c1,IC50,[1],19.7 µM (active)
COc1cc(/C=N/NC(=O)c2cn(-c3cccc(C)n3)cn2)ccc1O,IC50,[1],36.1 µM (active)
COc1ccccc1N1CCN(/N=C/c2ccc(O)cc2O)CC1,IC50,[1],48 µM (active)
C[N+](C)(C)CC=O [BETAINE ALDEHYDE CHLORIDE],IC50,[2],15.1 µM (active)
